SMILES strings stand for the structures.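 Cells were grown in 96-well plates and exposed to each compound for 48 hours at five concentrations; endpoints were interpolated linearly between bracketing concentrations, or set to the highest concentration if not reached. TGI marks complete inhibition of growth.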

Test systems include BT-549 breast; HOP-92 NSCLC; K-562 leukemia; NCI-H226 lung; NCI-H23 lung; OVCAR-4 ovarian; OVCAR-5 ovarian; SNB-19 CNS; SR leukemia; UO-31 renal.
Common to all, as to test: NCI-60 cell line screen, 48 h

Consider `Cc1ccc(S(=O)(=O)N/N=C2/CCCOC2)cc1`, for which the TGI in the experiment on BT-549 breast, in the experiment with HOP-92 NSCLC, in the experiment with K-562 leukemia, with NCI-H226 lung, in the experiment on NCI-H23 lung and in the experiment on OVCAR-4 ovarian was > 100 µM each time. Further, the TGI in the experiment with OVCAR-5 ovarian, in the experiment with SNB-19 CNS, with SR leukemia and in the experiment with UO-31 renal was > 100 µM in each case.
Turning to `O=C(NCP(=O)(c1ccccc1)c1ccccc1)OCc1ccccc1`, the TGI in the experiment on BT-549 breast, with HOP-92 NSCLC, with K-562 leukemia, in the experiment with NCI-H226 lung, in the experiment on NCI-H23 lung and in the experiment on OVCAR-4 ovarian was > 100 µM throughout. In addition, the TGI in the experiment on OVCAR-5 ovarian, in the experiment on SNB-19 CNS, in the experiment on SR leukemia and in the experiment on UO-31 renal was > 100 µM throughout.
With `COC(=O)c1cc2c(cc1CC(Cc1ccc3c(c1)CCCC3)C(=O)OC)CCCC2` (stereo not given), the TGI in the experiment on BT-549 breast is > 100 µM; in the experiment with HOP-92 NSCLC it was > 100 µM; with K-562 leukemia, > 100 µM; in the experiment with NCI-H226 lung, > 100 µM; with NCI-H23 lung it was > 100 µM; in the experiment with OVCAR-4 ovarian, 71.1 µM. Besides, the TGI in the experiment on OVCAR-5 ovarian, in the experiment on SNB-19 CNS, in the experiment with SR leukemia and in the experiment on UO-31 renal was > 100 µM each time.
For `CCN1CCN(c2nc3ccccc3c3c2CCOc2ccccc2-3)CC1`, the TGI was > 100 µM in the experiment on BT-549 breast; > 73.1 µM with HOP-92 NSCLC; > 100 µM in the experiment with K-562 leukemia; > 77.9 µM with NCI-H226 lung; > 100 µM in the experiment on NCI-H23 lung; > 100 µM with OVCAR-4 ovarian. In addition, the TGI is > 65.2 µM with OVCAR-5 ovarian, > 75.1 µM in the experiment on SNB-19 CNS, 24.8 µM in the experiment with SR leukemia and > 66 µM in the experiment with UO-31 renal.
Take `C1=Cc2cc3c(c4nccc(c24)N1)OCO3`: the TGI in the experiment on BT-549 breast was 48.8 µM; with HOP-92 NSCLC, > 100 µM; in the experiment with K-562 leukemia, 98.9 µM; with NCI-H226 lung, 36.7 µM; with NCI-H23 lung it was 26.3 µM; with OVCAR-4 ovarian, > 46.6 µM. The TGI in the experiment on OVCAR-5 ovarian was > 69.4 µM; in the experiment on SNB-19 CNS it was > 34.7 µM; in the experiment with SR leukemia it was 5.78 µM; with UO-31 renal, > 48.8 µM.
With `CCC(=O)Oc1ccc2c(c1)c(=O)c1c(NCCCN(C)C)ccc3nnn2c31`, the TGI in the experiment on BT-549 breast is 24.7 µM; with HOP-92 NSCLC, 21.3 µM; in the experiment on K-562 leukemia, > 100 µM; in the experiment with NCI-H226 lung, 11.8 µM; in the experiment with NCI-H23 lung, 20.3 µM; with OVCAR-4 ovarian it was 3.31 µM. For the same molecule, the TGI turned out to be 22.6 µM in the experiment with OVCAR-5 ovarian, 17.3 µM with SNB-19 CNS, 6.01 µM in the experiment with SR leukemia and 5.3 µM with UO-31 renal.

These data come from PubChem BioAssay (NCI).
